Assay: xn = mol fraction of the nth substance listed
Details: Gas, Frequency=2 MHz, Pulse-echo method

CCC [propane] + O=C=O
Details | speed of sound [m/s]
348.09 K, 124980 kPa, x2 = 0.9981 | 1016.6
348.09 K, 125530 kPa, x2 = 0.9683 | 1029
348.09 K, 125700 kPa, x2 = 0.9907 | 1023.2
348.09 K, 149990 kPa, x2 = 0.9981 | 1095.6
348.09 K, 150440 kPa, x2 = 0.9683 | 1109.4
348.09 K, 150600 kPa, x2 = 0.9907 | 1101.4
348.09 K, 174720 kPa, x2 = 0.9683 | 1178.6
348.09 K, 175000 kPa, x2 = 0.9981 | 1165.6
348.09 K, 175290 kPa, x2 = 0.9907 | 1171.4
348.09 K, 200000 kPa, x2 = 0.9981 | 1228.6
348.09 K, 200040 kPa, x2 = 0.9683 | 1243.8
348.09 K, 200720 kPa, x2 = 0.9907 | 1236.7
348.18 K, 25040 kPa, x2 = 0.9376 | 446.6
348.18 K, 25050 kPa, x2 = 0.9376 | 446.8
348.18 K, 50050 kPa, x2 = 0.9376 | 682.3
348.18 K, 75100 kPa, x2 = 0.9376 | 830.6
348.18 K, 100100 kPa, x2 = 0.9376 | 943.7
348.18 K, 125020 kPa, x2 = 0.9376 | 1037.1
348.18 K, 149940 kPa, x2 = 0.9376 | 1117.7
348.18 K, 174970 kPa, x2 = 0.9376 | 1189.8
348.18 K, 200000 kPa, x2 = 0.9376 | 1254.3
373.1 K, 74950 kPa, x2 = 0.9981 | 754.4
373.1 K, 74970 kPa, x2 = 0.9981 | 754.7
373.1 K, 100020 kPa, x2 = 0.9981 | 869.7
373.1 K, 125030 kPa, x2 = 0.9981 | 963.9
373.1 K, 150000 kPa, x2 = 0.9981 | 1044.4
373.1 K, 175000 kPa, x2 = 0.9981 | 1115.5
373.1 K, 200000 kPa, x2 = 0.9981 | 1179.3
373.12 K, 25050 kPa, x2 = 0.9376 | 384.7
373.12 K, 25060 kPa, x2 = 0.9376 | 385
373.12 K, 35140 kPa, x2 = 0.9683 | 488.3
373.12 K, 35170 kPa, x2 = 0.9683 | 488.8
373.12 K, 49890 kPa, x2 = 0.9376 | 618.8
373.12 K, 49950 kPa, x2 = 0.9683 | 611.6
373.12 K, 75070 kPa, x2 = 0.9683 | 764.5
373.12 K, 75090 kPa, x2 = 0.9376 | 772.6
373.12 K, 100000 kPa, x2 = 0.9376 | 889.4
373.12 K, 100300 kPa, x2 = 0.9683 | 881.3
373.12 K, 124970 kPa, x2 = 0.9376 | 985.6
373.12 K, 125160 kPa, x2 = 0.9683 | 976.5
373.12 K, 149930 kPa, x2 = 0.9376 | 1069
373.12 K, 150000 kPa, x2 = 0.9683 | 1057.9
373.12 K, 174970 kPa, x2 = 0.9376 | 1141.6
373.12 K, 175220 kPa, x2 = 0.9683 | 1131.5
373.12 K, 200010 kPa, x2 = 0.9683 | 1196.4
373.12 K, 200030 kPa, x2 = 0.9376 | 1208.7
373.13 K, 50050 kPa, x2 = 0.9907 | 607.3
373.13 K, 50070 kPa, x2 = 0.9907 | 607.5
373.13 K, 76000 kPa, x2 = 0.9907 | 763.8
373.13 K, 100270 kPa, x2 = 0.9907 | 874.4
373.13 K, 125410 kPa, x2 = 0.9907 | 970.3
373.13 K, 150430 kPa, x2 = 0.9907 | 1051.5
373.13 K, 174660 kPa, x2 = 0.9907 | 1121.2
373.13 K, 200020 kPa, x2 = 0.9907 | 1188.3

Source: the NIST ThermoML archive (doi:10.1021/je5007407)
